Source: ChEMBL document CHEMBL1221220, “Transport and signaling via the amino acid binding site of the yeast Gap1 amino acid transceptor” (Nat Chem Biol, 2009)
Substitutions are numbered along the chain they refer to. Activity calls are given as the source filed them. No cut-off for these calls is given here.

How the values were obtained:
[1] = test system: T1, General amino-acid permease GAP1 (Saccharomyces cerevisiae), P19145 [I382C]; test: Activation of yeast Gap1 I382C mutant-mediated amino acid uptake at 10 mM
T1 sequence (whole entry): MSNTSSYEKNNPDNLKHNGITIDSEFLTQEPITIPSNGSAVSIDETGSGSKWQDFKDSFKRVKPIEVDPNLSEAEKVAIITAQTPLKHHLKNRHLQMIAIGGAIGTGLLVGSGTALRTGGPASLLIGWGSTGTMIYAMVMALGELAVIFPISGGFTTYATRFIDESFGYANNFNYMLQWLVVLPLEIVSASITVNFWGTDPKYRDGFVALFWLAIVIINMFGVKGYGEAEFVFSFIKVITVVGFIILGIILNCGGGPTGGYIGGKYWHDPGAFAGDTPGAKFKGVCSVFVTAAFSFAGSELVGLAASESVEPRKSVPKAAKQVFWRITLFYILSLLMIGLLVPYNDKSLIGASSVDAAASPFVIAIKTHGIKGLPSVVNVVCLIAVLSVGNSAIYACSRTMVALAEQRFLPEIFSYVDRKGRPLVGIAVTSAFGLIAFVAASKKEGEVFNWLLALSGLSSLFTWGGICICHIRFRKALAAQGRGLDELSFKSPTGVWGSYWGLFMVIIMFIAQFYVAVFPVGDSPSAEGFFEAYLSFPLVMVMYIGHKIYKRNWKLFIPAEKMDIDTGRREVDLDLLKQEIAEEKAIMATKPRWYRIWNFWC

[2] = test system: T1, General amino-acid permease GAP1 (Saccharomyces cerevisiae), P19145 [I382C]; test: Induction of yeast Gap1 I382C mutant-mediated amino acid uptake at 2 mM in presence of 10 mM MTSEA treated before compound addition
[3] = test system: T2, General amino-acid permease GAP1 (Saccharomyces cerevisiae), P19145 [R399C]; test: Activation of yeast Gap1 R399C mutant-mediated amino acid uptake at 10 mM
T2 sequence (whole entry): T1 sequence (whole entry) with C382I, R399C

[4] = test system: General amino-acid permease GAP1 (Saccharomyces cerevisiae), P19145 [Y395C]; test: Inhibition of yeast Gap1 Y395C mutant-mediated trehalose activation at 10 mM
General amino-acid permease GAP1 (Saccharomyces cerevisiae), P19145 [Y395C], sequence (P19145 whole entry Y395C): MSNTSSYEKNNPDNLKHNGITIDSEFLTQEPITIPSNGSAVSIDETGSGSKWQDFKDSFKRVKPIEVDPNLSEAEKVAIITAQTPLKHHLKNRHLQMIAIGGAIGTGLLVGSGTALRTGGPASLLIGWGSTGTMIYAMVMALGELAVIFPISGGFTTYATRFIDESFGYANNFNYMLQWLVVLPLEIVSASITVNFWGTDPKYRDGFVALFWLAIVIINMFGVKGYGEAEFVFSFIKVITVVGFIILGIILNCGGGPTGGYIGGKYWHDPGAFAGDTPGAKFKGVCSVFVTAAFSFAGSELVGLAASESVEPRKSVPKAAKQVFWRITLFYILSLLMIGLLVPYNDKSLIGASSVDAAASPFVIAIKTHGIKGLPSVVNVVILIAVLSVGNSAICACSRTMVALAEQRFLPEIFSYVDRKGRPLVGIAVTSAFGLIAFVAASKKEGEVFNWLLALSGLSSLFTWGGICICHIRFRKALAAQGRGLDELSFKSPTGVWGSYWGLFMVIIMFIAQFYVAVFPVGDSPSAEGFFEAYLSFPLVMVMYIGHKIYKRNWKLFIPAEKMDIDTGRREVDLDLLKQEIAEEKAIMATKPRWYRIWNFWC

[5] = test system: T3, General amino-acid permease GAP1 (Saccharomyces cerevisiae), P19145 [T400C]; test: Activation of yeast Gap1 T400C mutant-mediated amino acid uptake at 10 mM
T3 sequence (whole entry): T1 sequence (whole entry) with C382I, T400C

[6] = test system: T4, General amino-acid permease GAP1 (Saccharomyces cerevisiae), P19145 [C397C]; test: Induction of yeast Gap1 C397C mutant-mediated amino acid uptake at 2 mM in presence of 10 mM MTSEA treated before compound addition
T4 sequence (whole entry): T1 sequence (whole entry) with C382I

- Activity [1]: inactive
- Activity [2]: Active
- Activity [3]: inactive
- inhibition [4]: Active
- Activity [5]: inactive
- Activity [6]: Active
Compound: NC(=O)NCCC[C@H](N)C(=O)O
